# In patent US10632165B2, “Beneficial effect of Bidens pilosa on fat decrease and muscle increase” (Academia Sinica, priority 2016, dated 2020):
# What was measured:
# 3T3-L1 adipocytes = experiment: MTT assay of cell viability of adipocytes; format: cell-based, mouse; conditions: 24 hr
# Procedure: (§1) The MTT assay of 3T3-L1 adipocytes grown in the medium containing vehicle or cytopiloyne at the indicated concentration for 24 hr is shown (A). 3T3-L1 pre-adipocytes were initiated for differentiation with DMSO (vehicle) and a mixture of Dex, IBMX and insulin for 2 days (B). The differentiating cells were then incubated with vehicle (inducer), rosiglitazone (RSG) or different doses of cytopiloyne until complete differentiation occurred. Lipid droplets from all the cells were visualized by Oil-Red-O staining and examined by light microscopy (left panel). Scale bars=10 μm. Oil Red O inside the cells was extracted and quantified at 520 nm (right panel). Expression of PPAR-γ and C/EBPα in 3T3-L1 cells treated with inducer in the presence of rosiglitazone (RSG) or cytopiloyne was analyzed by Western blot (C). The relative expression level (REL) of aP2 and adiponectin in 3T3-L1 cells was measured using real-time PCR (D). Effect of cytopiloyne on differentiation of human SGBS cells. The cells were incubated with DMEM/F12 medium (vehicle) or differentiation medium for 3 days (E). The cells were then incubated with vehicle (inducer) and cytopiloyne (25 μM) until a complete differentiation. […]
# MTT assay was used to determine cell viability of adipocytes. […] The plate was measured at 570 nm (signal) and 650 nm (reference) using a microplate reader (UVM340, Biochrom, UK).
# 3T3-L1 pre-adipocytes = experiment: Differentiation of 3T3-L1 pre-adipocytes, Oil Red O staining and lipid quantification; format: cell-based, mouse; conditions: 3T3-L1, inducer (Dex, IBMX and insulin) plus test substance
# Procedure: as §1, with “(E).” for “(E). The cells were then incubated with vehicle (inducer) and cytopiloyne (25 μM) until a complete differentiation.”
# (§2) The differentiated adipocytes were washed with phosphate-buffered saline (PBS) and fixed with 4% formaldehyde for 15 min. […] For lipid quantification, isopropanol was used to extract the intracellular oil red O, followed by measurement at 520 nm using a microplate reader.
# human SGBS cells = experiment: Differentiation of human SGBS cells, Oil Red O staining; format: cell-based; conditions: 25 μM
# Procedure: as §1, with “(E).” for “(E). The cells were then incubated with vehicle (inducer) and cytopiloyne (25 μM) until a complete differentiation.”
# as §2
# PPARγ = PPARγ expression in 3T3-L1 cells (Western blot); format: cell-based, mouse; conditions: inducer plus test substance
# Procedure: 3T3-L1 pre-adipocytes were initiated for differentiation with DMSO (vehicle) and a mixture of Dex, IBMX and insulin for 2 days (B). The differentiating cells were then incubated with vehicle (inducer), rosiglitazone (RSG) or different doses of cytopiloyne until complete differentiation occurred. […] Expression of PPAR-γ and C/EBPα in 3T3-L1 cells treated with inducer in the presence of rosiglitazone (RSG) or cytopiloyne was analyzed by Western blot (C).
# 3T3-L1 cells were maintained in DMEM medium containing 10% FBS, 4 mM glutamine, 4.5 g/L glucose, 1 mM sodium pyruvate, and 1.5 g/L sodium bicarbonate. The differentiation of 3T3-L1 cells into adipocytes was initiated by the addition of 10 μM Dex, 0.5 mM IBMX and 10 μg/mL insulin to the confluent cells for 2 days. The cells were then differentiated in medium containing 10 μg/mL insulin together with DMSO, rosiglitazone and cytopiloyne for an additional 8 to 10 days. The medium was changed every 2 days until the differentiation was complete.
# C/EBPα = C/EBPα expression in 3T3-L1 cells (Western blot); format: cell-based, mouse; conditions: inducer plus test substance
# Procedure: as §1
# Western Blot. […] After developing with ECL substrate (GE Healthcare, UK), the membranes were detected using FLUORCHEM™ HD2 system (Bio-Techne, Minneapolis, Minn., USA).
# aP2 = aP2 expression in 3T3-L1 cells (real-time PCR); format: cell-based, mouse
# Procedure: as §1, with “differentiation. The cells were stained with Oil Red O and photographed. Scale bar=20 μm.” for “differentiation.”
# adiponectin = experiment: Adiponectin expression in 3T3-L1 cells (real-time PCR); format: cell-based, mouse
# Procedure: as §1, with “differentiation. The cells were stained with Oil Red O and photographed. Scale bar=20 μm.” for “differentiation.”
smiles,measurement,setting,value
"CC#CC#CC#CC#CCCC(CO)O[C@@H]1O[C@H](CO)[C@@H](O)[C@H](O)[C@H]1O (stereo partly drawn) [cytopiloyne, 2-β-D-glucopyranosyloxy-1-hydroxytrideca-5,7,9,11-tetrayne]",cytotoxicity (MTT),"3T3-L1 adipocytes; 3T3-L1, 25 μM or less",did not show cytotoxicity
same,cytotoxicity (MTT),"3T3-L1 adipocytes; 3T3-L1, 50 μM",slight cytotoxicity
same,production of lipid droplets in adipocytes,3T3-L1 pre-adipocytes,dose-dependently inhibited this production
same,production of lipid droplets,human SGBS cells,inhibitory effect of cytopiloyne on the production of lipid droplets was confirmed
same,PPARγ expression up-regulated by the inducer,PPARγ,abolished the up-regulation
same,C/EBPα expression up-regulated by the inducer,C/EBPα,abolished the up-regulation
same,expression level of aP2 up-regulated by the inducer,aP2,abolished this up-regulation
same,expression level of adiponectin up-regulated by the inducer,adiponectin,abolished this up-regulation
